| SMILES | melting point |
| --- | --- |
| Nc1ccc(Sc2ccccc2)cc1C(F)(F)F | 63 to 66.5 °C |
| CC1(C)CC(N(c2nc(F)nc(N(C3CC(C)(C)NC(C)(C)C3)C3CC(C)(C)NC(C)(C)C3)n2)C2CC(C)(C)NC(C)(C)C2)CC(C)(C)N1 | 298 to 304 °C |
| O=C1CCN(c2cc(Cl)cc3cccnc23)CC1 | 223 to 225 °C |
| Nc1ncnc2c1c(-c1ccc(F)cc1)cn2-c1ccccc1 | 202 to 203 °C |
| CCCc1c(OCC(O)CSc2ccc(CC(=O)O)c(Cl)c2Cl)ccc(C(C)=O)c1O (centres undefined) | 151 to 153 °C |
| COC(=O)c1ccc2c(c1)OCC(=O)N2 | 258 to 260 °C |
| O=C(COc1cccc2ccccc12)c1cc(O)c(O)c([N+](=O)[O-])c1 | 198 to 199 °C |
| O=c1c2cccnc2c(-c2cccc(Cl)c2)cn1CC1CC1 | 120 to 122 °C |
| O=S(=O)(CCCCl)Nc1ccc(Oc2cccc3cccnc23)cc1 | 161 to 162 °C |
| CCCC(=O)NC(C)c1nnc(C)[nH]c1=O (centres undefined) | 235 to 237 °C |
| O=C1CCCc2cc(NS(=O)(=O)c3ccccc3)ccc21 | 164 to 165 °C |
| CC(C)[Si](C(C)C)(C(C)C)N1C=C2C=C(C=O)OCC3=C2C(=C1)CC3N(C)C (centres undefined) | 104 to 106 °C |
| CCCCOc1nc(N)c2[nH]c(=O)n(CCCCN(CC(C)(C)O)S(=O)(=O)c3cccc(CC(=O)OC)c3)c2n1 | 192 to 193 °C |
| Cc1ccc(C(=O)c2ccc(F)cc2C)c(F)c1 | 29 to 31 °C |
| O=C(NCC(=O)N(CC(=O)N1CCCCC1c1ccccc1)c1ccccc1)Nc1cccc(CO)c1 (racemic) | 104 °C |
| Cc1cc(-c2ccco2)ccc1-c1cc(C(F)(F)F)nn1-c1ccc(S(C)(=O)=O)c(F)c1 | 77 to 79 °C |
| O=C1NN=C(c2ccc3c(c2)CCN(C2CCC2)CC3)C2CC12 (centres undefined) | 129 to 132 °C |
| COc1ccc2nc3cc(Cl)ccc3c(Oc3ccc(Cl)cc3)c2c1 | 152 to 153 °C |
| CCOC(=O)Cc1cccc(C(=O)c2ccc(Br)cc2)c1N | 107 to 109 °C |
| COc1cc(C=CC(=O)Nc2cnc3ccc(C(C)C)cc3c2-c2ccccc2Cl)cc(OC)c1OC(C)=O | 138 °C |
| CCN1C(C(=O)Nc2coc3ccccc3c2=O)C(=O)c2ccccc2S1(=O)=O (centres undefined) | 235 to 237 °C |
| Cc1ccc(C(=O)C2=C(O)C(=O)N(c3ccc(C)nn3)C2c2ccc(OC3CCN(C)CC3)cc2)cc1 (centres undefined) | 259 to 260 °C |
| C=C(Cn1ccnc1)c1ccccc1OCc1ccc(Cl)cc1Cl | 84 to 86 °C |
| CC(CC1CCCCC1)C(=O)COS(=O)(=O)c1ccccc1 (centres undefined) | 51 to 52 °C |
| COc1ccc(-c2c(Cl)ncn2-c2ccc(S(C)(=O)=O)cc2)cc1 | 205 °C |

| SMILES | melting point |
| --- | --- |
| O=C(CCl)Nc1cscn1 | 115 to 119 °C |
| CCOC(=O)c1cc(=O)c2c(OCC(O)COc3ccc(Cl)cc3Cl)cccc2o1 (centres undefined) | 98 to 100 °C |
| CCn1ncc2c(O)c3c(nc21)C(=O)c1ccccc1CC3 | 190 to 192 °C |
| Cc1cc(C)cc(-c2cnn3c(-c4cccc(NC(=O)CC(C)C)c4)ccnc23)c1 | 178 to 180 °C |
| NC(=O)CNC(=O)c1cccc(-c2c(F)ccc3cc(Cc4cccc(C(F)(F)F)c4)sc23)c1 | 130 to 131 °C |
| CCOCc1nc2c(N)nc3cc(-c4ccccc4)ccc3c2n1CC1CCNCC1 | 142 to 143 °C |
| C=C(C)COc1ccc(C(=O)C=Cc2c[nH]c3ccccc23)c(O)c1 | 29 to 30 °C |
| Cn1ccnc1C(=O)Nc1ccc(-n2nc(C(F)(F)F)cc2C2CC2)cc1 | 132 to 134 °C |
| Cc1cc(COc2c(Cl)cc(C=O)cc2Cl)oc(=O)c1 | 180 °C |
| S=C(Nc1cccnc1)N1N=CCC1c1ccccc1 (centres undefined) | 156 to 158 °C |
| Cc1ccc2cc(-c3ccccc3)ccc2n1 | 95 °C |
| N#Cc1nc(N)nc(N)c1-c1ccc(Cl)cc1Cl | 249 °C |
| CC1(C)Nc2nc(Cl)ccc2NC1=O | 229 °C |
| COc1cc2c3c(n(Cc4ccccc4)c2cc1OC)CCCC3C(=O)N1CCN(c2ccccc2)CC1 (centres undefined) | 245 to 247 °C |
| Cc1c(NCC(C)(C)NC(=O)OC(C)(C)C)c([N+](=O)[O-])c2nnnn2c1C | 153 to 155 °C |
| O=C(NCC1CCCC1)NCC1CCCC1 | 162 to 164 °C |
| CN(C)c1ccc(C(=O)c2cc(C(F)(F)F)cc(C(F)(F)F)c2)cc1 | 129 to 131 °C |
| CCOC(=O)c1ccsc1NC(=O)NCCN1CCN(c2ccccc2)CC1 | 117 to 120 °C |
| COc1cc(Nc2nc3c(s2)CCCC3c2ccccc2)ccc1C(N)=O (centres undefined) | 243 to 246 °C |
| Cc1ccc2c(c1Cl)C(=O)N(C1(C#N)CCCCC1)C2=O | 165 to 168 °C |
| COc1ccc(CCC(=O)NNC(=O)c2ccc3[nH]ncc3c2)cc1C(F)(F)F | 224 to 225 °C |
| COc1cccc(CNc2cc(C(N)=O)c([N+](=O)[O-])cc2[N+](=O)[O-])c1 | 222 to 224 °C |
| CC1(C)CCC(C)(C)c2cc([N+](=O)[O-])c(O)cc21 | 139 °C |
| CC(=O)c1ccc2c(c1)CCN(Cc1ccccc1)CC2 | 89 to 91 °C |
| CCc1cc(CCCOc2c(C)cc(-c3noc(C)n3)cc2C)on1 | 85 to 86 °C |

| SMILES | melting point |
| --- | --- |
| CCCCCCCNC(=O)Nc1ccccc1C(=O)NCCCC1CCN(C(c2ccccc2)c2ccccc2)CC1 | 123 to 124 °C |
| Cc1c(Br)sc2cc(CO)ccc12 | 91 °C |
| CCOC(=O)c1cnn(Cc2ccccc2)c1-c1ccccc1 | 78 to 79 °C |
| Fc1ccc(Cn2cnc3c(-c4ccco4)ncnc32)cc1 | 162 to 164 °C |
| Cn1cnc(S(=O)(=O)O)c1Cl | 309 to 310 °C |
| NS(=O)(=O)Cc1ccccc1OC(F)(F)F | 127 °C |
| CCC(=O)N1N=C(c2ccc([N+](=O)[O-])cc2)c2cc(Cl)ccc2CC1C (centres undefined) | 160 to 161 °C |
| CC(C)OC(=O)Nc1cccc(-c2ccnc3c(C(=O)C4CCCC4)cnn23)c1 | 57 to 59 °C |
| CN(C)C=NS(=O)(=O)CCC(C)(C)CC#N | 53 to 54 °C |
| CCOC(=O)COc1ccc(Oc2ccc([N+](=O)[O-])cc2)c(Cl)c1Cl | 90 to 91 °C |
| CCC(C)C(=O)Nc1nn(C)c2c1sc1cc(N)ccc12 (centres undefined) | 196 to 197 °C |
| COC(=O)c1cccc(-c2ccccc2[N+](=O)[O-])c1 | 88 to 90 °C |
| Cc1cc(C)cc(-c2nc3ncccc3o2)c1 | 148 to 152 °C |
| COC(=O)[C@@H]1C/C=C/COc2ccc(cc2)C[C@H](NC(=O)OC(C)(C)C)C(=O)N[C@@H](C(C)C)C(=O)N1 | 105 to 107 °C |
| CC(=O)OCCn1c(C(=O)Nc2ccc(OCC(C)(C)C)c(C#N)c2)cc2ccccc21 | 169 to 170 °C |
| CC1(C)Oc2ccc(C#Cc3ccccc3)cc2[C@@H](N)[C@@H]1O (relative stereo) | 162 to 164 °C |
| CCCCc1oc2ccccc2c1C(O)c1ccc(-c2ccc(O)cc2)cc1 (centres undefined) | 47 to 49 °C |
| O=c1[nH]c2c(cc1-c1noc(C3CC3)n1)CN(Cc1ccccc1)CC2 | 187 to 190 °C |
| CC(C)Oc1cc(CCCOc2cc(CCC(=O)O)n(C)n2)cc(COc2ccc(Cl)cc2Cl)c1 | 116 to 120 °C |
| COc1ccc(C=O)c(-c2ccc(O[Si](C)(C)C(C)(C)C)cc2)c1O | 103 to 106 °C |
| COc1cc(OC)nc(NS(=O)(=O)c2ccccc2N(C)S(C)(=O)=O)n1 | 228 to 230 °C |
| COC(=O)C1=C(C)NC(C(OC)OC)=C(C(=O)OC)C1c1cccc([N+](=O)[O-])c1 (centres undefined) | 99 to 100 °C |
| CN1CCN(c2cc3ccccc3c(=O)[nH]2)[C@@H](CO)C1 | 169 to 171 °C |
| O=c1c(-c2ccccc2)c[nH]n1-c1cccc(Cl)c1 | 211 to 212 °C |
| CC(=O)OC1N=C(c2ccccc2)c2cc(Cl)ccc2-c2c1nc(C)[nH]c2=O (centres undefined) | > 320 °C |

| SMILES | melting point |
| --- | --- |
| O=C(O)C=CC(=O)c1ccco1 | 153 to 155 °C |
| CCOC(=O)c1cnn(-c2ccccc2)c1NC(=O)Nc1ccccc1 | 184 to 185 °C |
| O=C(NC1CCCCC1)NS(=O)(=O)c1ccc(CCNC(=O)N2CCC3=C(CCCC3)C2=O)cc1 | 176 to 177 °C |
| O=S1(=O)N=CN(C2CC2)c2ccccc21 | 191 to 194 °C |
| COCCOc1nc(Cl)ncc1Cc1ccc(C)nc1 | 50 to 52 °C |
| COc1ccc(C=Cc2cc(Br)c(OC)c(OC)c2)cc1O | 108 to 109 °C |
| COc1ccc(/C=C/c2nc3cc(C(=O)O)ccc3[nH]2)cc1OC | > 285 °C |
| COCCOCc1c(CN(C)CC(O)c2cccc(OC)c2)sc2c(=O)c(C(=O)NCc3ccc(Cl)cc3)cn(C)c12 (centres undefined) | 135 to 138 °C |
| CC#CCOc1ccc(SC(C(=O)O)c2ccc(-c3cccs3)cc2)cc1 (centres undefined) | 137 °C |
| Cn1c(=O)[nH]c2cnc(-c3ccccc3)nc21 | 286 to 289 °C |
| CNCCCN(C)c1ccc2c(C(=O)NCC34CC5CC(CC(C5)C3)C4)c(Cl)ccc2n1 | 195 to 200 °C |
| CCCC[C@H](NC(=O)[C@H](CC(C)C)NC(=O)OC(C)(C)C)C(=O)CCCc1cccs1 | 70 to 72 °C |
| CCN(CC)CCC(=O)Nc1ccc2c(c1)C(=O)c1cc(NC(=O)CCN(CC)CC)ccc1C2=O | 193 °C |
| N#CC1(N2CCC(n3c(=O)[nH]c4ccccc43)CC2)CCCCC1 | 199 to 201 °C |
| CCN(CC)CCOc1ccc([N+](=O)[O-])cc1NC(C)=O | 117 °C |
| C=CCNc1nnc(-c2ccc(F)c(F)c2Nc2ccc(CC)cc2F)o1 | 120 to 123 °C |
| COc1ccc(CCOc2cccc(-c3cccc(C(=O)O)c3)c2)cc1OC | 100 to 102 °C |
| COC(=O)NC[C@H]1CN(c2cc(F)c(N3CCC(n4ncnn4)CC3)c(F)c2)C(=O)O1 | 168 to 170 °C |
| COc1cc(Br)c(C(C)=O)cc1O | 110 to 111 °C |
| Cn1nc(-c2ccc(OC(F)(F)F)cc2)cc1CO | 91 to 93 °C |
| N#CCOc1cc(C(F)(F)F)nc2ccc(-c3cc4ccccc4o3)cc12 | 174 to 176 °C |
| COc1cc(=O)n(-c2cccc(C(F)(F)F)c2)nc1-c1ccnn1-c1ccccc1 | 165 to 167 °C |
| CCCc1sc(-c2ccccc2)nc1O | 86 to 87 °C |
| COc1ccc(C(=O)O)cc1Oc1ccc(C(F)(F)F)cc1Cl | 162 to 165 °C |
